PubChem BioAssay (NCI)
“And” between values parts separate entries of the source, which are not always exact repeats. Identical values can stand only once.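 Dose response: 5 concentrations. Exposure: 48 h. Format: 96-well plates. Endpoint: linear interpolation; highest concentration if not reached. GI50: concentration for 50% inhibition of growth. TGI: concentration producing complete growth inhibition.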

What was measured:
Test in all cases: NCI anticancer screen, dose series, 48 h
UACC-62 melanoma = test system: UACC-62 melanoma
SK-MEL-2 melanoma = test system: SK-MEL-2 melanoma
SN12C renal = test system: SN12C renal
TK-10 renal = test system: TK-10 renal
OVCAR-8 ovarian = test system: OVCAR-8 ovarian
UACC-257 melanoma = test system: UACC-257 melanoma
A498 renal = test system: A498 renal
IGROV1 ovarian = test system: IGROV1 ovarian
MALME-3M melanoma = test system: MALME-3M melanoma
HOP-62 NSCLC = test system: HOP-62 NSCLC

Compound	GI50 (UACC-62 melanoma) [µM]	TGI (UACC-62 melanoma)	GI50 (SK-MEL-2 melanoma) [µM]	TGI (SK-MEL-2 melanoma)	GI50 (SN12C renal) [µM]	TGI (SN12C renal)	GI50 (TK-10 renal) [µM]	TGI (TK-10 renal)	GI50 (OVCAR-8 ovarian) [µM]	TGI (OVCAR-8 ovarian)	GI50 (UACC-257 melanoma) [µM]	TGI (UACC-257 melanoma)	GI50 (A498 renal) [µM]	TGI (A498 renal)	GI50 (IGROV1 ovarian)	TGI (IGROV1 ovarian)	GI50 (MALME-3M melanoma) [µM]	TGI (MALME-3M melanoma)	GI50 (HOP-62 NSCLC) [µM]	TGI (HOP-62 NSCLC)
CN=C1NC(=O)/C(=C/c2ccc3ncccc3c2)S1	8.31	> 25 µM	5.42	14.4 µM	7.7	> 25 µM	6.02	> 25 µM	7.73	> 25 µM	7.18	> 25 µM	3.86	13.7 µM	8.53 µM	> 25 µM	16	> 25 µM	10.3	> 25 µM
O=C1c2ccccc2C(=O)c2c1ccc1[nH]c(CCl)nc21	2.06	4.99 µM	3.26	12.2 µM	2.08	4.87 µM	2.91	9.79 µM	3.68	15.7 µM	4.23	15.1 µM	1.27	7.06 µM	2.03 µM	6.59 µM	2.82	10.9 µM	3.12	9.42 µM
Cn1cc(C2=C(c3ccc(OC[C@@H](O)CO)cc3)C(=O)NC2=O)c2ccccc21	> 25	> 25 µM	> 25	> 25 µM	> 25	> 25 µM	> 25	> 25 µM	> 25	> 25 µM	> 25	> 25 µM	3.54	15.3 µM	> 25 µM	> 25 µM	> 25	> 25 µM	> 25	> 25 µM
CCN1CCN(c2nc(NCCNc3ccnc4cc(Cl)ccc34)c3ccccc3n2)CC1	1.41	2.94 µM	2.07	4.33 µM	1.21	2.88 µM	2.42	6.02 µM	1.89	5.96 µM	2.62	4.8 µM	1.68	3.35 µM	1.62 µM	4.69 µM	1.95	3.58 µM	1.95	6.43 µM
CCCCCCCCCCCCOC1C(CNCC2OC3OC(C)(C)OC3C2NC(=O)Nc2ccc(C(=O)OCC)cc2)OC2OC(C)(C)OC21 (stereo not given)	3.39	12.2 µM	13.4	29.7 µM	1.96	3.74 µM	4.13	15.2 µM	2.16	4.3 µM	5.05	16.2 µM	12.8	25.5 µM	2.7 µM	7.37 µM	8.99	29.1 µM	3.55	13.5 µM
COc1ccc(N=Cc2cc(OC)c(OC)c(OC)c2)cc1		> 100 µM		> 100 µM		> 100 µM		> 100 µM		> 100 µM		> 100 µM		> 100 µM		> 100 µM		> 100 µM		> 100 µM
C[C@@H]1Cc2c([nH]c3ccccc23)[C@@H](c2c(F)cc(/C=C/C(=O)O)cc2F)N1CC(C)(C)F	3.9	17.3 µM	13.8	32.8 µM	11.9	38.3 µM	15.9	39.4 µM	11.9	38.4 µM	21.7	49.7 µM	8.77	23.7 µM	16.4 µM	37.2 µM	15.5	34.3 µM	15.5	31.7 µM
C#CC(C)(C)Oc1cc(O)c2c(=O)c3ccccc3n(C)c2c1		> 100 µM		> 100 µM		> 100 µM		> 100 µM		> 100 µM		> 100 µM		> 100 µM		> 100 µM		> 100 µM		> 100 µM
COc1cc2c(NCCCCCCO[N+](=O)[O-])ncnc2c(OC)c1OC		43.6 µM		53.9 µM		> 71.5 µM		49.4 µM		64.4 µM		36.5 µM		52 µM		> 84.4 µM		31.9 µM		66.7 µM
CC[n+]1ccc2c(c1)C(=O)c1nccc3c1c-2nc1ccccc13	0.763	2.52 µM	1.35	6.08 µM	0.142	0.66 µM	4.77	16.8 µM	1.04	6.47 µM	3.42	9.06 µM	0.874	6.13 µM	1.76 µM	10.9 µM	0.762	2.03 µM	0.0618	1.19 µM
CC1=CCCC(OC(N)=O)C1 (stereo not given)		> 100 µM		> 100 µM		> 100 µM		> 100 µM		> 100 µM		> 100 µM		> 100 µM		> 100 µM		> 100 µM		> 100 µM
O=[n+]1c(CBr)c(CBr)n([O-])c2ccccc21	14.1	27.4 µM	15.3	29.6 µM	11	24.3 µM	1.97	4.17 µM	15.2	31 µM	13.6	27.6 µM	41.3	> 100 µM	10.5 µM	31 µM	1.47	3.15 µM	17.8	37.5 µM
CN1CCN(Cc2ccc(NC(=O)c3cncc(C#Cc4cnc(N)c5ccccc45)c3)cc2C(F)(F)F)CC1	0.587	1.16 µM	0.196	0.697 µM	0.242	0.693 µM	0.466	1 µM	0.473	1.46 µM	0.605	1.27 µM	0.299	1.14 µM	0.127 µM	0.615 µM	0.315	0.774 µM	0.324	1.25 µM
N#Cc1c(O)c2c(c(O)c1C#N)C(=O)c1ccccc1C2=O	1.05	2.85 µM	2.66	7.73 µM	1.82	4.04 µM	4.2	13.8 µM	2.33	6.48 µM	1.57	4.82 µM	1.39	16.4 µM	2.89 µM	10.8 µM	0.475	1.7 µM	3.44	10.5 µM
Cc1c(Cl)cccc1Nc1ncccc1C(=O)O	48.3	> 100 µM	> 100	> 100 µM	> 100	> 100 µM	> 100	> 100 µM	> 100	> 100 µM	> 100	> 100 µM	34.3	> 100 µM	> 100 µM	> 100 µM	73.4	> 100 µM	> 100	> 100 µM
C/C(=N\NC(N)=S)c1ccc(C)cc1C		> 100 µM		> 100 µM		> 100 µM		> 100 µM		> 100 µM		> 100 µM		> 100 µM		> 100 µM		> 100 µM		> 100 µM
O=c1c(Cl)c(Cl)cnn1-c1ccccc1		3.34 µM and 5.36 µM		15.5 µM and 14.5 µM		8.88 µM and 4.01 µM		24.7 µM and 29.8 µM		6.05 µM and 11.5 µM		14.1 µM and 48.4 µM		31.6 µM and 31.2 µM	1.81 µM and 7.02 µM	3.37 µM and 21.5 µM		7.91 µM and 9.73 µM		16.7 µM and 32.1 µM
COc1ccc(-n2cc(-c3ccc(OC)c(OC)c3)[nH]c2=S)cc1Cl	> 100	> 100 µM	> 100	> 100 µM	> 100	> 100 µM	> 100	> 100 µM					> 100	> 100 µM	> 100 µM	> 100 µM	> 100	> 100 µM	30.2	> 100 µM
COc1cc2c(c(O)c1C)C(=O)C(Cl)=CC2=O		13.8 µM		31.2 µM		27.6 µM		15.3 µM		45 µM		18.7 µM		33.9 µM		40.2 µM		12.5 µM		> 69.2 µM
CC1=C(CCCOC(=O)NCCCl)C2=C(C)C3(CC3)[C@@](C)(O)C(=O)C2=C1	2.02	4.96 µM	2.31	4.96 µM	3.84	> 100 µM	3.55	> 100 µM	3.4	> 100 µM	3.91	> 100 µM	1.88	3.95 µM	1.77 µM	17.6 µM	1.85	4.22 µM	2.37	7.42 µM
O=C(O/N=C1/CCC/C1=C\c1ccccc1)c1ccc([N+](=O)[O-])cc1		> 100 µM		> 100 µM		> 100 µM		> 100 µM		> 100 µM		> 100 µM		> 100 µM		> 100 µM		> 100 µM		> 100 µM
O=C1CC[C@H]2CNC(=O)C[C@H]2C1		> 100 µM		> 100 µM		> 100 µM		> 100 µM		> 100 µM		> 100 µM		> 100 µM		> 100 µM		> 100 µM		> 100 µM
CC1=C2[C@@H](CC1)[C@]1(C)O[C@@](C(C)C)(C[C@H]1OC(=O)[C@H](C)O)[C@H]2OC(=O)/C=C/c1ccccc1	12.2	27.4 µM	16.1	33 µM	1.47	24.6 µM	16.3	32 µM	0.451	16.6 µM	17	34.1 µM	0.236	0.702 µM	19.2 µM	49.8 µM	14.9	31.6 µM	13.9	29.3 µM
CC1=C[C@@H]2Cc3occc3C(C)(C)[C@@H]2CC1		> 10 µM		24.5 µM		29.8 µM		45.4 µM		37.5 µM		44.7 µM		49.6 µM		> 10 µM		44.2 µM		92.2 µM
O=C(Cc1ccc(/C=C/C(=O)c2ncc[nH]2)cc1)Nc1ccc(Cl)cc1	3.94	9.48 µM	5.53	14.6 µM	2.4	6.91 µM	5.41	13.9 µM	3.65	16 µM	7.24	19 µM	5.48	13 µM	3.59 µM	15.4 µM	6.24	18.5 µM	3.19	8.78 µM
C[C@]12CCC(=O)C=C1CC[C@@H]1C2CC[C@]2(C)NC(=O)C(C#N)CC12 (stereo not given in full)		> 100 µM		> 100 µM				> 100 µM		> 100 µM		> 100 µM		> 100 µM		> 100 µM		> 100 µM		> 100 µM
CN(C)CCNC(=O)c1cccc2nc3c(Cl)cccc3nc12		3.87 µM		18.6 µM		49.5 µM		> 54.8 µM		> 44.3 µM		26.9 µM		16.9 µM		> 86.4 µM		8.05 µM		26.3 µM
CCCCn1/c(=N/C(=S)N(C)C)ss/c1=N\C(=S)N(C)C		> 100 µM		> 100 µM		> 100 µM		> 100 µM		> 100 µM		> 100 µM		> 100 µM		> 100 µM		> 100 µM		> 100 µM
O=C(/C=C(\[O-])c1ccccc1)CCCCCCC(=O)/C=C(\[O-])c1ccccc1.O=C(/C=C(\[O-])c1ccccc1)CCCCCCC(=O)/C=C(\[O-])c1ccccc1.O=C(/C=C(\[O-])c1ccccc1)CCCCCCC(=O)/C=C(\[O-])c1ccccc1.[La+3].[La+3]	> 50	> 50 µM	> 50	> 50 µM	> 50	> 50 µM	> 50	> 50 µM	> 50	> 50 µM	> 50	> 50 µM	> 50	> 50 µM	> 50 µM	> 50 µM	> 50	> 50 µM	> 50	> 50 µM
CC1CCC[P+](Cc2ccccc2)(c2ccccc2)CC1 (stereo not given)		> 100 µM		78.2 µM		> 100 µM		> 100 µM		> 100 µM				> 100 µM		> 100 µM		42.6 µM		> 100 µM
